From publication PMC9057277 (RSC Advances, 2020)
Read-outs that look alike come from different tables or passages of the source.

Assays:
[1] = log D7.4 by HPLC method; assay type: physicochemical; conditions: HPLC retention on ODP-50 4B column (Shodex Asahipak); pH 7.4, HPLC-based method
[2] = Metabolic stability in vivo: blood clearance, blood components, radiometabolites; set-up: species or system male Wistar rats; conditions: for half-life: male, Wistar, rat, arterial blood, iv, 70 MBq, i.v., arterial blood samples; for half-life / Intact compound in blood plasma: rats; for Radioactivity distribution in blood components: erythrocytes / Radioactivity distribution in blood components: plasma / Radioactivity distribution in blood components: plasma supernatant / Radioactivity distribution in blood components: plasma pellet (bound to plasma proteins) / Radioactivity distribution in blood components: plasma pellet: rat blood; for Radioactivity distribution in blood components: plasma pellet (bound to plasma proteins): + TCA precipitation; for Intact compound in blood plasma: radio-HPLC
[3] = Ex vivo biodistribution in healthy rats; conditions: for Biodistribution BAT: brown adipose tissue; for Biodistribution BAT / Biodistribution adrenals / Biodistribution blood / Biodistribution brain / Biodistribution femur / Biodistribution harderian gland / Biodistribution heart / Biodistribution intestine / Biodistribution kidneys / Biodistribution liver / Biodistribution lung / Biodistribution muscle / Biodistribution pancreas / Biodistribution skin & hair / Biodistribution spleen / Biodistribution stomach / Biodistribution testes / Biodistribution thymus / Biodistribution thyroid gland / Biodistribution urine (calc.) / Biodistribution femur (femur uptake, 18F-defluorination) / Biodistribution WAT: i.v., n = 8, mean ± SD; for Biodistribution WAT: white adipose tissue
[4] = biological target: T1, recombinant human COX-2 (Homo sapiens, UniProt P35354); experiment: COX Fluorescent Inhibitor Screening Assay Kit, COX-2; assay type: biochemical; conditions: for Selectivity index: IC50 (COX-1)/IC50 (COX-2)
T1 construct: purchased Cayman Chemical, Ann Arbor, MI 700100
T1 sequence (P35354 18-604): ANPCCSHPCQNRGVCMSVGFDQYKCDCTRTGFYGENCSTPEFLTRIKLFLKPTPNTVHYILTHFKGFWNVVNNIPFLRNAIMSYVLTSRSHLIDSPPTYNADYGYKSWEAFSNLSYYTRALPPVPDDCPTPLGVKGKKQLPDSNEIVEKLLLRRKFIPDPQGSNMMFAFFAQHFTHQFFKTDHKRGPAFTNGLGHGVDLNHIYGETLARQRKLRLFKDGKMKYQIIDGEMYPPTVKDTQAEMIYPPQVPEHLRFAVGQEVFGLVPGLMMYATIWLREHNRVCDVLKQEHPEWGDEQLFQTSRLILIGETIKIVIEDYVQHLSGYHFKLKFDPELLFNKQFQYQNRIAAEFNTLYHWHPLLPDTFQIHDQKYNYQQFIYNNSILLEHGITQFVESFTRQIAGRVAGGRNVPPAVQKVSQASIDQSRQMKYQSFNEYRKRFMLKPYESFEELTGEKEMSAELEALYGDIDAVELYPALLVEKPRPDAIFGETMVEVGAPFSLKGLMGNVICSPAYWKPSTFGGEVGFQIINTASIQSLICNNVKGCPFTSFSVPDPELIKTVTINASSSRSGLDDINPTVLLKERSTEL

[5] = biological target: T2, purified ovine COX-1 (Ovis aries, UniProt P05979); experiment: COX Fluorescent Inhibitor Screening Assay Kit, COX-1
T2 sequence (P05979 25-600): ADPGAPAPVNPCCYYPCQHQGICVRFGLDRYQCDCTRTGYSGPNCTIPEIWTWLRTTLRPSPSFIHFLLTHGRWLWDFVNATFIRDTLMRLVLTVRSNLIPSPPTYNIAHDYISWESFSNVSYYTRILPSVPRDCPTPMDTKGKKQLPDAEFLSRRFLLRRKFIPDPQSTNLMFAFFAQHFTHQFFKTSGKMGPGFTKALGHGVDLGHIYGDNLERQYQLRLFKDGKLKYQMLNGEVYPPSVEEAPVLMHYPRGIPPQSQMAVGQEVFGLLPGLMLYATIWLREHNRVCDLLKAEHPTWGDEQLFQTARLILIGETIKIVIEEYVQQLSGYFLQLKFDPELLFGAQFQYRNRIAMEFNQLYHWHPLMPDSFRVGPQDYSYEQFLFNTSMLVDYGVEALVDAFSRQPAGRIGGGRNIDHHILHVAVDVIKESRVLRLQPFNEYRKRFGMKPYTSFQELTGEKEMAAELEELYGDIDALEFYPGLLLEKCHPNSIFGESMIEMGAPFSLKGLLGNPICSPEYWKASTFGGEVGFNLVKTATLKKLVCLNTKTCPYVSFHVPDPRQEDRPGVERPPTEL
Method: 7.4.1 COX inhibition assay
The COX inhibition potency against ovine COX-1 and human COX-2 was determined using the
fluorescence-based COX assay ’COX Fluorescent Inhibitor Screening Assay Kit‘ (catalog number
reported by us.7 In brief, as a measure of COX mediated conversion of arachidonic acid to PG H2 in the
presence of different inhibitor concentrations this assay utilizes the peroxidase component of COX and
analyzes the formation of fluorescent resorufin. All compounds were assayed in a concentration range
of 10 nM to 100 μM, and every inhibitor concentration was assayed in duplicate.
as internal control. IC50 values were estimated using a nonlinear logistic regression ﬁtting procedure
(sigmoidal dose−response model) with Prism Software.

[6] = Stability towards liver microsomes of mice
[7] = read-out: t1/2 distribution (blood clearance of intact compound)
[8] = read-out: t1/2 elimination (blood clearance of intact compound)

## Cc1ccc(-c2cc(C[18F])nn2-c2ccc(S(C)(=O)=O)cc2)cc1 [[^18F]5a, 3-([^18F]fluoromethyl)-1-[4-(methylsulfonyl)phenyl]-5-(p-tolyl)-1H-pyrazole]
[1]
  chromatographic logD: 2.72
[2]; [7]
  half-life: 0.6 min
[2]; [8]
  half-life: 19.5 min
[2]; 60 min p.i., + TCA
  Radioactivity distribution in blood components: erythrocytes: 19%
  Radioactivity distribution in blood components: plasma: 71%
  Radioactivity distribution in blood components: plasma supernatant: 42%
[2]; 60 min p.i.
  Radioactivity distribution in blood components: plasma pellet (bound to plasma proteins): 25%
  Intact compound in blood plasma: 28%
[2]; 60 min p.i., - TCA
  Radioactivity distribution in blood components: erythrocytes: 17%
  Radioactivity distribution in blood components: plasma: 67%
  Radioactivity distribution in blood components: plasma pellet: 1%
  Radioactivity distribution in blood components: plasma supernatant: 80%
[2]; 20 min p.i.
  Intact compound in blood plasma: 46%
[3]; 60 min p.i.
  liver-to-bladder ratio (hepatobiliary vs renal excretion): 2.3
  Biodistribution BAT: 1.13 ± 0.29 SUV
  Biodistribution adrenals: 1.85 ± 1.91 SUV
  Biodistribution blood: 0.12 ± 0.04 SUV
  Biodistribution brain: 0.12 ± 0.04 SUV
  Biodistribution femur (femur uptake, 18F-defluorination): 4.1 ± 0.6 SUV
  Biodistribution harderian gland: 0.64 ± 0.28 SUV
  Biodistribution heart: 0.15 ± 0.02 SUV
  Biodistribution intestine: 19.43 ± 2.27 %ID
  Biodistribution kidneys: 0.36 ± 0.19 SUV
  Biodistribution liver: 0.78 ± 0.2 SUV
  Biodistribution lung: 0.19 ± 0.06 SUV
  Biodistribution muscle: 0.21 ± 0.1 SUV
  Biodistribution pancreas: 0.44 ± 0.28 SUV
  Biodistribution skin & hair: 0.39 ± 0.2 SUV
  Biodistribution spleen: 0.18 ± 0.07 SUV
  Biodistribution stomach: 1.06 ± 0.42 %ID
  Biodistribution testes: 0.27 ± 0.17 SUV
  Biodistribution thymus: 0.28 ± 0.11 SUV
  Biodistribution thyroid gland: 0.67 ± 0.37 SUV
  Biodistribution urine (calc.): 8.55 ± 2.53 %ID
  Biodistribution WAT: 1.67 ± 0.23 SUV
[3]; 5 min p.i.
  Biodistribution BAT: 2.21 ± 0.91 SUV
  Biodistribution adrenals: 2.25 ± 1.19 SUV
  Biodistribution blood: 0.46 ± 0.15 SUV
  Biodistribution brain: 0.46 ± 0.14 SUV
  Biodistribution femur: 0.96 ± 0.53 SUV
  Biodistribution harderian gland: 1.5 ± 0.6 SUV
  Biodistribution heart: 0.79 ± 0.23 SUV
  Biodistribution intestine: 6.78 ± 2.69 %ID
  Biodistribution kidneys: 1.53 ± 0.49 SUV
  Biodistribution liver: 3.84 ± 1.52 SUV
  Biodistribution lung: 0.89 ± 0.38 SUV
  Biodistribution muscle: 0.35 ± 0.18 SUV
  Biodistribution pancreas: 0.97 ± 0.27 SUV
  Biodistribution skin & hair: 0.97 ± 0.31 SUV
  Biodistribution spleen: 0.53 ± 0.24 SUV
  Biodistribution stomach: 0.87 ± 0.65 %ID
  Biodistribution testes: 0.34 ± 0.16 SUV
  Biodistribution thymus: 0.76 ± 0.18 SUV
  Biodistribution thyroid gland: 0.71 ± 0.4 SUV
  Biodistribution urine (calc.): 3.32 ± 4.35 %ID
  Biodistribution WAT: 1.45 ± 0.53 SUV

## [2H]C([2H])([18F])c1cc(-c2ccc(C)cc2)n(-c2ccc(S(C)(=O)=O)cc2)n1 [[D2,^18F]5a]
[1]
  chromatographic logD: 2.72
[2]; [7]
  half-life: 1.3 min
[2]; [8]
  half-life: 17 min
[2]; 60 min p.i., + TCA
  Radioactivity distribution in blood components: erythrocytes: 18%
  Radioactivity distribution in blood components: plasma: 73%
  Radioactivity distribution in blood components: plasma supernatant: 39%
[2]; 60 min p.i.
  Radioactivity distribution in blood components: plasma pellet (bound to plasma proteins): 29%
  Intact compound in blood plasma: 52%
[2]; 60 min p.i., - TCA
  Radioactivity distribution in blood components: erythrocytes: 16%
  Radioactivity distribution in blood components: plasma: 70%
  Radioactivity distribution in blood components: plasma pellet: 1%
  Radioactivity distribution in blood components: plasma supernatant: 73%
[2]; 20 min p.i.
  Intact compound in blood plasma: 54%
[3]; 5 min p.i.
  Biodistribution BAT: 3.31 ± 0.56 SUV
  Biodistribution adrenals: 3.28 ± 0.52 SUV
  Biodistribution blood: 0.42 ± 0.04 SUV
  Biodistribution brain: 0.54 ± 0.12 SUV
  Biodistribution femur: 0.84 ± 0.09 SUV
  Biodistribution harderian gland: 1.94 ± 0.14 SUV
  Biodistribution heart: 0.76 ± 0.12 SUV
  Biodistribution intestine: 10.14 ± 1.96 %ID
  Biodistribution kidneys: 1.58 ± 0.24 SUV
  Biodistribution liver: 4.16 ± 0.29 SUV
  Biodistribution lung: 0.92 ± 0.14 SUV
  Biodistribution muscle: 0.52 ± 0.08 SUV
  Biodistribution pancreas: 1.37 ± 0.13 SUV
  Biodistribution skin & hair: 0.9 ± 0.15 SUV
  Biodistribution spleen: 0.56 ± 0.1 SUV
  Biodistribution stomach: 1.14 ± 0.57 %ID
  Biodistribution testes: 0.48 ± 0.04 SUV
  Biodistribution thymus: 0.95 ± 0.08 SUV
  Biodistribution thyroid gland: 0.95 ± 0.18 SUV
  Biodistribution urine (calc.): 0.15 ± 1.91 %ID
  Biodistribution WAT: 2.79 ± 1.06 SUV
[3]; 60 min p.i.
  Biodistribution BAT: 1.21 ± 0.11 SUV
  Biodistribution adrenals: 0.91 ± 0.15 SUV
  Biodistribution blood: 0.11 ± 0.01 SUV
  Biodistribution brain: 0.11 ± 0.02 SUV
  Biodistribution femur (femur uptake, 18F-defluorination): 2.6 ± 0.3 SUV
  Biodistribution harderian gland: 0.5 ± 0.08 SUV
  Biodistribution heart: 0.16 ± 0.03 SUV
  Biodistribution intestine: 33.02 ± 3.53 %ID
  Biodistribution kidneys: 0.47 ± 0.06 SUV
  Biodistribution liver: 0.92 ± 0.19 SUV
  Biodistribution lung: 0.21 ± 0.03 SUV
  Biodistribution muscle: 0.19 ± 0.07 SUV
  Biodistribution pancreas: 0.62 ± 0.37 SUV
  Biodistribution skin & hair: 0.25 ± 0.04 SUV
  Biodistribution spleen: 0.22 ± 0.12 SUV
  Biodistribution stomach: 1.19 ± 0.49 %ID
  Biodistribution testes: 0.21 ± 0.04 SUV
  Biodistribution thymus: 0.21 ± 0.04 SUV
  Biodistribution thyroid gland: 0.45 ± 0.06 SUV
  Biodistribution urine (calc.): 9.12 ± 3.68 %ID
  Biodistribution WAT: 2.4 ± 0.28 SUV

## Cc1ccc(-c2cc(CCF)n(-c3ccc(S(C)(=O)=O)cc3)n2)cc1 [5d]
[4]
  IC50: > 100 µM
[5]
  IC50: > 100 µM

## [2H]C([2H])(F)c1cc(-c2ccc(C)cc2)n(-c2ccc(S(C)(=O)=O)cc2)n1 [[D2]5a]
[4]
  IC50: 0.97 µM
  Selectivity index: >103
[5]
  IC50: > 100 µM

## Cc1ccc(-c2cc(CCF)nn2-c2ccc(S(C)(=O)=O)cc2)cc1 [5b]
[4]
  IC50: 2.53 µM
  Selectivity index: 15
[5]
  IC50: 38.5 µM

## CS(=O)(=O)c1ccc(-n2nc(CCF)cc2-c2ccccc2)cc1 [5c]
[4]
  IC50: 4.97 µM
  Selectivity index: >20
[5]
  IC50: > 100 µM

## C[C@]12CC[C@H]3[C@@H](CCC4=CC(=O)CC[C@@]43C)[C@@H]1CC[C@@H]2O [Testosteron, reference compound]
[6]
  conversion by mouse liver microsomes (positive control for oxidation): Complete conversion
